Data set [1] can be described thus: solubility (testability in the bacteriostatic test). Format: physicochemical. The following applies: could not be tested in bacteriostatic test.
The test system of data set [2] is female NMRI mice. Description: LD50 acute toxicity in mice (Litchfield and Wilcoxon). In kind it is in vivo. The following applies: for Toxicity, LD50 i.p. / Toxicity, LD50 p.o.: female NMRI mice 20-30 g, 10 days observation, 14400 min.
The conditions of data set [3]: Saski and Shah 1965; Barkley et al. 1960/1961; cited from earlier work.
For data set [4], the system named is bacterial parent strains (Escherichia coli, Proteus vulgaris, Pseudomonas aeruginosa). Description: bacteriostatic activity (serial dilution in thioglycolate nutrient solution). In kind it is cell-based. The following applies: for concentration at which activity is (still) shown (text): after 6 days at 30°C; for Bacteriostatic activity in relation to concentration (table): solutions containing 100 mg hexetidine, incubated at 30°C for 6 days. As to the method: For a determination of bacteriostatic activity, solutions of hexetidine, hexetidine oxalate and hexetidine nicotinate having the following compositions were compared: The inoculum suspension was obtained by inoculation of a sterile Petri dish containing nutrient agar (standard I) with a test culture of bacterial parent strains (Escherichia coli, Proteus vulgaris, Pseudomonas aeruginosa) and incubation at 30°C for 24 hours. The suspension was either used immediately or stored at +4°C. The organisms grown in the Petri dish were elutriated with 5 ml physiological brine solution and diluted 1:10 with the same solution to a volume of 50 ml. Then 250 ml double concentrated thioglycolate solution (60 g/l) were mixed with 100 drops (about 5 ml) of the above 1:10 diluted primary culture of bacterial parent strains and shaken to obtain a uniform suspension. Serial dilutions were prepared for each of the above-mentioned compound solutions in the following concentrations, each comprising 10 test tubes of […]: hexetidine per ml: 1,000; 500; 250; 125; 62.5; about 31; about 16; about 8; about 4; about 2. Next, 5 ml double concentrated thioglycolate nutrient solution inoculated with the test organisms were added to each test tube by means of a pipet. Each test tube thus contained 50% of the final concentration. […]

Data set [5] in a line: LD50 acute toxicity in mice (Litchfield and Wilcoxon). In kind it is in vivo. The following applies: mouse, in vivo, po; female NMRI mice 20-30 g; 10 days observation.
Data set [6] is described as follows: antibacterial activity, general statement. Format: cell-based.
[7] abbreviates: listed as Hexetidine nicotinate.

Structures can show the parent of a compound that is named as a salt.

For the molecule `CCCCC(CC)CN1CN(CC(CC)CCCC)CC(C)(N)C1` (stereo not drawn) [hexetidine cinnamate], the solubility entry in data set [1] is listed as “extreme insolubility”. Further, in data set [2] (listed as Hexetidine cinnamate), the “Toxicity, LD50 i.p.” value was 54 mg/kg and the “Toxicity, LD50 p.o.” value was 1,740 mg/kg.

The LD50 is the dose at which mortality reaches 50%. Higher therefore signals a less toxic substance. Turning to `CCCCC(CC)CN1CN(CC(CC)CCCC)CC(C)(N)C1` (stereo not drawn) [hexetidine, 1,3-bis(β-ethylhexyl)-5-amino-5-methylhexahydropyrimidine], in data set [3], the “antibacterial activity (words, literature)” value was “remarkable antibacterial activity”. The “concentration at which activity is (still) shown (text)” value (shortened to “concentration at which activity is”) in data set [4] is 125 γ. The “Bacteriostatic activity in relation to concentration (table)” value (from here on “Bacteriostatic activity in relation”) in data set [4] (listed as Hexetidine) was 125 γ. Also, the “Toxicity, LD50 i.p.” value in data set [2] (listed as Hexetidine) is 33 mg/kg. The LD50 at 240 h in data set [5] turned out to be 960 mg/kg.

Turning to `CCCCC(CC)CN1CN(CC(CC)CCCC)CC(C)(N)C1` (stereo not drawn) [hexetidine nicotinate, 1,3-bis(β-ethylhexyl)-5-amino-5-methylhexahydropyrimidine pyridine-3-carboxylate], the “antibacterial activity compared with hexetidine” value in data set [6] was “particularly favorable increase in antibacterial activity”. In addition, in data set [4] (setting [7]), the “concentration at which activity is” value is recorded as 62.5 γ and the “Bacteriostatic activity in relation” value is 62.5 γ. Also, in data set [2] (setting [7]), the “Toxicity, LD50 i.p.” value stood at 63 mg/kg and the “Toxicity, LD50 p.o.” value is reported as 1,830 mg/kg. In data set [2] (relative to hexetidine, mice), the “toxicity of hexetidine after salt formation with nicotinic acid” value is “substantially reduced”.

`CCCCC(CC)CN1CN(CC(CC)CCCC)CC(C)(N)C1` (stereo not drawn) [hexetidine oxalate]: in data set [4] (listed as Hexetidine oxalate), the “concentration at which activity is” value is recorded as > 500 γ and the “Bacteriostatic activity in relation” value is on record as 500 γ. Further, in data set [2] (listed as Hexetidine oxalate), the “Toxicity, LD50 i.p.” value is recorded as 23 mg/kg and the “Toxicity, LD50 p.o.” value worked out at 970 mg/kg.
